For one compound, IC50 results are on record in patent US20200129533A1, “PHARMACEUTICAL NANOSUSPENSION FOR THE THERAPY OF HIV INFECTION” (priority 2017, published 2020).

Like-named read-outs stand apart in the source and are kept apart here.

Common to all, as to assay type: cell-based
Assay [1] concerns HIV-1 mutant virus V106A. Description: Inhibition of replication of HIV-1 mutant virus V106A. Particulars: Human immunodeficiency virus 1, read-out: Average IC50. The protocol: (§1) Elsulfavirine/Elpida/VM-1500 (la) is the prodrug of the active compound VM-1500A (1b), a Non-Nucleoside Reverse Transcriptase Inhibitor (NNRTI), which efficiently prevents HIV-1 HXB2 strain replication in the MT-4 cell line. […] 0.6±0.6 nM (G190A), 1.3±0.3 nM (L100I/K103N), and 1.3±0.4 nM (K103N/Y181C)

For assay [2], the system named is HIV-1 mutant virus K103N/Y181C. The experiment in a line: Inhibition of replication of HIV-1 mutant virus K103N/Y181C. As to conditions: Human immunodeficiency virus 1, read-out: Average IC50. As to the method: as §1
For assay [3], the system named is HIV-1 HXB2 strain. The experiment in a line: Inhibition of HIV-1 HXB2 (wild-type) replication in MT-4 cell line. As to the method:
as §1

The test system of assay [4] is HIV-1 mutant virus L100I/K103N. The experiment in a line: Inhibition of replication of HIV-1 mutant virus L100I/K103N. Particulars: Human immunodeficiency virus 1, read-out: Average IC50. The protocol: as §1
The subject of assay [5] is HIV-1 mutant virus G190A. The experiment in a line: Inhibition of replication of HIV-1 mutant virus G190A. As to conditions: Human immunodeficiency virus 1, read-out: Average IC50. As to the method:
as §1

Consider `N#Cc1cc(Cl)cc(Oc2c(Br)ccc(CC(=O)Nc3ccc(S(N)(=O)=O)cc3Cl)c2F)c1` [VM-1500A], for which the IC50 was found to be 1.2 ± 0.2 nM in assay [1]; 1.3 ± 0.4 nM in assay [2]; 0.74 ng/mL in assay [3] (Human immunodeficiency virus 1, HXB2, MT4, as restated, converted to ng/ml, read-out: effective concentration (IC50)); 1.3 nM in assay [3] (Human immunodeficiency virus 1, HXB2, MT4, as restated, read-out: effective concentration (IC50)); 1.3 ± 0.4 nM in assay [3] (Human immunodeficiency virus 1, MT4, wild-type HXB2 strain, MT-4 cell line, read-out: Average IC50); 1.3 ± 0.3 nM in assay [4]. For the same compound, the IC50 in assay [5] came to 0.6 ± 0.6 nM.
